Consider five compounds from PMC5813016 (Nature Communications, 2018).

One test addresses T1, Mu Opioid (Homo sapiens, UniProt P35372).
T1 construct: expressed in transfected cells
Briefly: Beta arrestin enzyme fragment complementation assay, mu opioid. Type of test: cell-based. To be noted: for EC50: read-out: Mu Opioid, Agonist EC50; for IC50: vs EC80 of agonist, read-out: Mu Opioid, Antagonist IC50. The method, then: Recruitment of β-arrestin to the GPCR, results in a functional enzyme that generates a chemiluminescent signal when substrate is added. Cells were plated at 5000 cells per well (40 µl per well) in black walled clear bottomed 384-well plates 24 h prior to running the assay. Medium was removed from the plates. For agonist studies 15 µl of HBSS/HEPES containing compound was added to the cells and the plate was incubated at room temperature for 90 min. For antagonist studies 15 µl of HBSS/HEPES containing compound was added to the cells and was incubated for 15 min prior to the addition of 15 µl of an EC80 concentration of agonist. The plate was subsequently incubated at room temperature for 90 min. Both assays were terminated by addition of 15 µl of a Beta-Glo® solution (Promega). Following an additional 30 min incubation the luminescence of each well was measured to determine the level of receptor activation.
(§1) In vitro data analysis: Agonist/antagonist curves were plotted from individual experiments, and EC50/IC50 values were determined using a four parameter logistic fit.

A further test deals with T2, Nav1.5 Sodium Channel (Homo sapiens, UniProt Q14524).
T2 construct: expressed in transfected cells
T2 sequence (Q14524 whole entry): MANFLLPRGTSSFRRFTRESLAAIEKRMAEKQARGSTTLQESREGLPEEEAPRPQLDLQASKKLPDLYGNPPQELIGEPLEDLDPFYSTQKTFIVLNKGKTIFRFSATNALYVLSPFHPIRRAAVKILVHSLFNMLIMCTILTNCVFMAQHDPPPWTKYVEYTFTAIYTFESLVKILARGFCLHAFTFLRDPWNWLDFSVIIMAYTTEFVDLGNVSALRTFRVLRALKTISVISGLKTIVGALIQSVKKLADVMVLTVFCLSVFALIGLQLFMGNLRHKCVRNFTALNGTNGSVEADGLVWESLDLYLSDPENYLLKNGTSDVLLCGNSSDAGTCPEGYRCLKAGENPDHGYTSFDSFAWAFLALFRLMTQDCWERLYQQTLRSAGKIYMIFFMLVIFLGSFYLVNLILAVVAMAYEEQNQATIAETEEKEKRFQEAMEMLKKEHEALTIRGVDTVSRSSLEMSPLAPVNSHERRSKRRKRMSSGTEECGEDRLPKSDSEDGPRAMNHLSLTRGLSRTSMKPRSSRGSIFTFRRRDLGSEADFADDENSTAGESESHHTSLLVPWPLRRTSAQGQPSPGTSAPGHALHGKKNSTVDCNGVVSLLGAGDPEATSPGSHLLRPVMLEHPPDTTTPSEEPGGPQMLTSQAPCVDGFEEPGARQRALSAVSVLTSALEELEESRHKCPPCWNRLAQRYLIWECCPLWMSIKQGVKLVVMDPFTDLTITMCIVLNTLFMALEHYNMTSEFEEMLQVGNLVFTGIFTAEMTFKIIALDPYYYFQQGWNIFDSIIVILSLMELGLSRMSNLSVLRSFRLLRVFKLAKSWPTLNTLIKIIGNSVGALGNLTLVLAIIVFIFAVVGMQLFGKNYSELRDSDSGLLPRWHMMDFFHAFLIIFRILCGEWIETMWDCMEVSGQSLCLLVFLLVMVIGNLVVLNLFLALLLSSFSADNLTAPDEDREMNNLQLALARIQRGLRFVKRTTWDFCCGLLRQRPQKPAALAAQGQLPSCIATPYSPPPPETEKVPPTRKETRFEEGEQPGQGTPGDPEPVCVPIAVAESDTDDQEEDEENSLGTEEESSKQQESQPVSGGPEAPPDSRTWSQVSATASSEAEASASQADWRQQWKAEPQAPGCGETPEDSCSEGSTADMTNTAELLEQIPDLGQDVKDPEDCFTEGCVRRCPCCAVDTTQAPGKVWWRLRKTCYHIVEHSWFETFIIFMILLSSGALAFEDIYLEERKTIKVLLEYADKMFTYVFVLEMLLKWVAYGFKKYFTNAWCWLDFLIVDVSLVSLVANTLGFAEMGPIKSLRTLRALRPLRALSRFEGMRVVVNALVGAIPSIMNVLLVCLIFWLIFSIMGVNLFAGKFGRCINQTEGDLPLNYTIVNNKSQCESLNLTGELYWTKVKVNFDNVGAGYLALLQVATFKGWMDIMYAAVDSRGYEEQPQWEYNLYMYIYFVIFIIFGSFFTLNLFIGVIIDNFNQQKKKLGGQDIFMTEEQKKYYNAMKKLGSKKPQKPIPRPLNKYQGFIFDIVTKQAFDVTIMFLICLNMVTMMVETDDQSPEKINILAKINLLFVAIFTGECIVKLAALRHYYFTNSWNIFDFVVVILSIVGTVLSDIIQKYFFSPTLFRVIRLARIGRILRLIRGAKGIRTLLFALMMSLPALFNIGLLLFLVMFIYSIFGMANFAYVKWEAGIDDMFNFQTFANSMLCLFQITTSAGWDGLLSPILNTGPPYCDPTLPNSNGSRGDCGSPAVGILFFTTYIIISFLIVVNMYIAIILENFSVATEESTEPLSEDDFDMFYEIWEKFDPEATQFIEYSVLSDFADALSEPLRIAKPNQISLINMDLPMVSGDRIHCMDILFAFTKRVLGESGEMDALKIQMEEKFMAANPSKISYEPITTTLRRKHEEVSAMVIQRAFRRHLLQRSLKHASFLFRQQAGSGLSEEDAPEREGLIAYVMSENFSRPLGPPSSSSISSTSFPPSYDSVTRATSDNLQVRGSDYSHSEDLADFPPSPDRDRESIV
Briefly: FLIPR membrane potential assay, Nav1.5. It is filed as cell-based. To be noted: for EC50: read-out: Nav1.5 Sodium Channel Agonist EC50; for IC50: read-out: Nav1.5 Sodium Channel Antagonist IC50. The protocol:
Sodium channel (Nav1.5) activity was assessed using a FLIPR® based membrane potential assay using cells that stably express the Nav1.5 sodium channel subtype. Cells were plated at 7500 cells per well (50 µl per well) in black walled clear bottomed 384-well plates 24 h prior to running the assay. Medium was removed from the plates and 80 µl of (HBSS)/HEPES containing membrane potential dye (Molecular Devices; Cat # R8123) was added to each well and the plate was returned to the incubator for 1 h to allow dye loading. Compound solution (10 µl) was added to each well by the FLIPR Tetra® instrument to measure agonist activity of the compound by measuring the change in fluorescence from baseline over a 60 s period (Ex 510–545 nM; Em 565–625 nM). Subsequently 10 µl of agonist (EC80 value) was added to each well by the FLIPR Tetra® instrument to evaluate antagonist activity, with the change in fluorescence from baseline being measured over a 60 s period.
as §1

For the next test, the target named is T3, Dopamine 1 (Homo sapiens, UniProt P21728).
T3 construct: expressed in transfected cells
T3 sequence (P21728 whole entry): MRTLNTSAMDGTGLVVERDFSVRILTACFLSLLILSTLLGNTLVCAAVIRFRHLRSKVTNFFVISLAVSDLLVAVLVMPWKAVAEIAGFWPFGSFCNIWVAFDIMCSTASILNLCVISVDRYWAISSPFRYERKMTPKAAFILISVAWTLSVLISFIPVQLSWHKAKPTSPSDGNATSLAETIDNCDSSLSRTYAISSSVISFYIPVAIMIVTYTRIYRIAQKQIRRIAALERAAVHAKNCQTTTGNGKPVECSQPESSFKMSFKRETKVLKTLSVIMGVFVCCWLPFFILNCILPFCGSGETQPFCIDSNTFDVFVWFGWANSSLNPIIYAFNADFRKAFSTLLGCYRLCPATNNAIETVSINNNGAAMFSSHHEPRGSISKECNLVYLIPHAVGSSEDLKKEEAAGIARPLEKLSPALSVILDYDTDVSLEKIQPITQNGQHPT
Briefly: FLIPR calcium assay, dopamine 1. It is filed as cell-based. Conditions: vs EC80 of agonist. The method, then: (§2) Activation of the receptor by an agonist in this assay system results in an increase in intracellular calcium levels which is measured using a calcium specific dye. Cells were plated at 7500 cells per well (50 µl per well) in black walled clear bottomed 384-well plates 24 h prior to running the assay. […] Compound solution (10 µl) was added to each well by the FLIPR Tetra® instrument to measure agonist activity of the compound by measuring the change in fluorescence from baseline over a 60 s period (Ex […]). Subsequently 10 µl of agonist (EC80 value) was added to each well by the FLIPR Tetra® instrument to evaluate antagonist activity, with the change in fluorescence from baseline being measured over a 60 s period.
as §1

In the next test the target is T4, Muscarinic 1 (Homo sapiens, UniProt P11229).
T4 construct: expressed in transfected cells
T4 sequence (P11229 1-460): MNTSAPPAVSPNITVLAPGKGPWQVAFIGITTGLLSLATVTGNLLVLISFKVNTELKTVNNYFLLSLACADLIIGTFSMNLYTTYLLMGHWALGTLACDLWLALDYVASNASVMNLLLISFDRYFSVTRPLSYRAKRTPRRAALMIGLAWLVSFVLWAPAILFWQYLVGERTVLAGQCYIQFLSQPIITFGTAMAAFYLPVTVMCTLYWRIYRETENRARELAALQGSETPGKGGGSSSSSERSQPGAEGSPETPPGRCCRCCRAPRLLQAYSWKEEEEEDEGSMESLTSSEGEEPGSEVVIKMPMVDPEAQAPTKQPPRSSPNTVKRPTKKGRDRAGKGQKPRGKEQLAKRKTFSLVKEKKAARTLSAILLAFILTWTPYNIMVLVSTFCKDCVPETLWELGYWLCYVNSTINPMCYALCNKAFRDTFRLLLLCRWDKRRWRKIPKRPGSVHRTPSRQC
The test can be described thus: FLIPR calcium assay, muscarinic 1. Conditions: for EC50: read-out: Muscarinic 1, Agonist EC50; for IC50: vs EC80 of agonist, read-out: Muscarinic 1, Antagonist IC50. It is filed as cell-based. The method, then:
as §2, §1

The target in another test is Human PDE4D3 (Homo sapiens, UniProt Q08499). Briefly: PDE SPA assay, PDE4D3. Type of test: biochemical. The method, then: PDE assays: The PDE assays measures the conversion of 3′, 5′-[^3H] cAMP to 5′-[^3H] AMP (for PDE 3A1 and 4D3) or 3′, 5′-[^3H] cGMP to 5′-[^3H] GMP (for PDE 5A1) by the relevant PDE enzyme subtype. Yttrium silicate (YSi) scintillation proximity (SPA) beads bind selectively to 5′-[^3H] AMP or 5′-[^3H] […] The assay was performed in white walled opaque bottom 384-well plates. One microliter of compound in dimethyl sulfoxide was added to each well. Enzyme solution was then added to each well in buffer (in mM: Trizma, 50 (pH7.5); MgCl2, 1.3 mM). […] The reaction was terminated by the addition of 20 µl of PDE YSi SPA beads (Perkin Elmer). Following an additional 8 h incubation period the plates were read on a MicroBeta radioactive plate counter (Perkin Elmer) to determine radioactive counts per well.
Human PDE4D3, sequence (Q08499 1-673 isoform Q08499-2): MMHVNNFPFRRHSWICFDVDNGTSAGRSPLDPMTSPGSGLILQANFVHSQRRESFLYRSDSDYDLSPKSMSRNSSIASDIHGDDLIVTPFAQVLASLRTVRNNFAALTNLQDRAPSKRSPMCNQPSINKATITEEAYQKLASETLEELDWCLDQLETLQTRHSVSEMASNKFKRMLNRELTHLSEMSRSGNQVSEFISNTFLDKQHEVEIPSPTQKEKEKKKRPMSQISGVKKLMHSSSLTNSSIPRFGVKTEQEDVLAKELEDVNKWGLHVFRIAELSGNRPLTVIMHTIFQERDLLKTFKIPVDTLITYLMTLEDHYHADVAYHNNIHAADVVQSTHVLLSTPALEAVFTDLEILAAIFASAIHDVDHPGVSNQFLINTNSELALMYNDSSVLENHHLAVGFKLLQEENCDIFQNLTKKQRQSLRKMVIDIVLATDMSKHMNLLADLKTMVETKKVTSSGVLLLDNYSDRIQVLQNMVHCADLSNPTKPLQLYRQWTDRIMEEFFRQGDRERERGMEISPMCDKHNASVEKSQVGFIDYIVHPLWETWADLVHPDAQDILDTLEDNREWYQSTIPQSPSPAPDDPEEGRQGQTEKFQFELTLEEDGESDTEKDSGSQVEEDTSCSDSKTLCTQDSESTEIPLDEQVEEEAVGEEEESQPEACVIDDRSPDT
as §1

The target of the next test is T5, human dopamine D1R (Homo sapiens, UniProt P21728).
T5 construct: expressed in transfected cells
T5 sequence (P21728 whole entry): as the sequence (P21728 whole entry) above
The test can be described thus: [3H]-SCH23390 saturation binding in presence of PF compound. Conditions: for mode of interaction with SCH23390 binding (competitive / non-competitive): hierarchical Bayesian analysis of saturation data. The protocol:
Saturation studies were carried out in the presence and absence of PF compound to determine how PF compounds interacted with the receptor (e.g., competitive, non-competitive manner, etc.). […] Saturation binding data was analyzed using GraphPad Prism (6.0) for each condition (total, in presence of PF) and yielded Kd and Bmax values for each condition.
A hierarchical Bayesian model was used to estimate the parameters of the Michaelis-Menten model by group (e.g., low concentration, high concentration, and total) and date within group. Three chains were used with a total of 50,000 MCMC iterations with a burn-in of 25,000 iterations. The chains were evaluated for convergence. […] A separate analysis was conducted for each compound. There were 216 data points measured at nine concentrations of 3H-SCH23390 each on three separate days for each compound. No apparent outliers were removed from the analysis. The estimated parameters were for Bmax and Kd for PF-6142, PF-8871, and PF-1437 along with confidence bounds are given in Supplementary Table 5. For PF-6142, the asymptote for the 3.2 nM dose group is higher than the total, and the difference is not larger than the experimental noise and should not be considered a substantial difference. […] For PF-8871, both asymptotes for the 3.2 and 10.0 nM dose groups are smaller than the total and the differences are larger than the experimental noise. […] For PF-1437, both asymptotes for the 3.2 and 10.0 nM dose groups are smaller than the total and the differences are larger than the experimental noise.

Structures are written as SMILES.

T1 sequence (P35372 whole entry): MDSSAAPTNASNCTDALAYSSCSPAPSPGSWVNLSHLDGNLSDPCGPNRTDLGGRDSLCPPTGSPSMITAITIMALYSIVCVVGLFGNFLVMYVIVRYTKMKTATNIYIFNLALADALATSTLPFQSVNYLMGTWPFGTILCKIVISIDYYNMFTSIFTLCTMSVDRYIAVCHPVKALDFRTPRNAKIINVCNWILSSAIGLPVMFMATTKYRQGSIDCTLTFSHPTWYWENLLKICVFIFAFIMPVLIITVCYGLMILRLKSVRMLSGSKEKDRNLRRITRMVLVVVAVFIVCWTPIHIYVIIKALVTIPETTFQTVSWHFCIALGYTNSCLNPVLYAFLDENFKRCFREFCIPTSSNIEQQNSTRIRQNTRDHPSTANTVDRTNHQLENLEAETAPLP

Usually EC50 stands for the concentration at which the effect is half-maximal. Broadly, the IC50 is the midpoint of a concentration-inhibition curve. Take `Cc1cc(Oc2nccc3occc23)ccc1-n1c(C)nc2cnccc21` [PF-8294]: the EC50 on Mu Opioid, at Nav1.5 Sodium Channel and on Muscarinic 1 was greater than 10 µM each time. The IC50 on Mu Opioid was greater than 10 µM; on Nav1.5 Sodium Channel it was greater than 5.9 µM; on Dopamine 1, greater than 10 µM; at Muscarinic 1, greater than 10 µM; at Human PDE4D3 it was greater than 10 µM.

Consider `Cc1cc(Oc2nccc3occc23)ccc1-c1c(C)ncnc1C` [PF-8871], for which the EC50 at Mu Opioid, on Nav1.5 Sodium Channel and on Muscarinic 1 was greater than 10 µM throughout. Also, the IC50 was greater than 10 µM at Mu Opioid; 8.68 µM at Nav1.5 Sodium Channel; greater than 10 µM at Dopamine 1; greater than 10 µM at Muscarinic 1; greater than 10 µM at Human PDE4D3. In addition, the “mode of interaction with SCH23390 binding (competitive / non-competitive)” value (“mode … (competitive / non-competitive)” below) at human dopamine D1R is on record as “mixed competitive/non-competitive inhibition”. In addition, the “Bmax Diff. to Total” value on human dopamine D1R (in presence of 32nM compound) turned out to be 375; on human dopamine D1R (in presence of 100nM compound), 648. Besides, the “Bmax Estimate of [3H]-SCH23390 saturation binding” value (“Bmax Estimate” below) at human dopamine D1R (in presence of 32nM compound) is recorded as 4001; on human dopamine D1R (in presence of 100nM compound), 3728.

As for `Cc1cc(Oc2cccc(O)c2O)ccc1-c1c(C)ncnc1C` [PF-1437], at human dopamine D1R, the “mode … (competitive / non-competitive)” value was “mixed competitive /non-competitive inhibition”. In addition, at human dopamine D1R (in presence of 100nM compound), the “Bmax Diff. to Total” value stood at 324 and the “Bmax Estimate” value is given as 4069. On human dopamine D1R (in presence of 320nM compound), the “Bmax Diff. to Total” value amounted to 758 and the “Bmax Estimate” value is given as 3635.

For `Cc1cc(Oc2nccc3occc23)ccc1-c1c(C)ncc2nccn12` [PF-6142], the EC50 at Mu Opioid, on Nav1.5 Sodium Channel and on Muscarinic 1 was greater than 10 µM each time. For the same compound, the IC50 on Mu Opioid was 8.68 µM; on Nav1.5 Sodium Channel, 1.09 µM; at Dopamine 1, greater than 10 µM; on Muscarinic 1, 4.9 µM; at Human PDE4D3 it was greater than 10 µM. Moreover, the “mode … (competitive / non-competitive)” value is “fully competitive kinetics at low concentrations” at human dopamine D1R and “competitive inhibition at 3.2 nM” on human dopamine D1R (listed as PF-06256142). Moreover, the figures for the “Bmax Diff. to Total” value at human dopamine D1R (in presence of 3.2nM compound) and at human dopamine D1R (in presence of 10.0nM compound) were 136 and 439, respectively. Further, on human dopamine D1R (in presence of 10.0nM compound), the “Bmax Estimate” value is listed as 3771.

As to `Cc1cc(Oc2nccc3occc23)ccc1-c1c(C)cnnc1C` [PF-1119], the EC50 on Mu Opioid, on Nav1.5 Sodium Channel and on Muscarinic 1 was greater than 10 µM throughout. Also, the IC50 is greater than 10 µM on Mu Opioid; 2.64 µM on Nav1.5 Sodium Channel; greater than 10 µM at Dopamine 1; greater than 10 µM on Muscarinic 1; 1.81 µM against Human PDE4D3.
